Laboratory results taken from patent publication US20230159453A1 (COCRYSTAL PHARMA, INC., priority 2020, published 2023).

Target: SARS2 protease (Severe acute respiratory syndrome coronavirus 2, UniProt P0DTD1)
Test: SARS-CoV-2 protease inhibition assay (SARS2 FRET protease assay)
Type: biochemical
Details: SARS-CoV-2 protease 25 nM, FRET, peptide substrate 1.3 μM, 30 minutes at 30° C., compounds 20 μM to 1.0 nM; read-out: IC50

Compared with `CCOP(=O)(OCC)C(O)[C@H](CCC(=O)N(C)C)NC(=O)C(CC(C)(C)C)NC(=O)OCc1cccc(Cl)c1` (stereo partly drawn) [Compound C2, 3-Chlorobenzyl (1-(((2S)-1-(diethoxyphosphoryl)-5-(dimethylamino)-1-hydroxy-5-oxopentan-2-yl)amino)-4,4-dimethyl-1-oxopentan-2-yl)carbamate], `CCCCCOC(=O)N[C@@H](CC1CCCCC1)C(=O)N[C@@H](CCC(=O)N1CCOc2ccccc2C1)C(O)P(=O)(OCC)OCC` (stereo partly drawn) [Compound C6, Pentyl ((2S)-3-cyclohexyl-1-(((2S)-1-(diethoxyphosphoryl)-5-(2,3-dihydrobenzo[f][1,4]oxazepin-4(5H)-yl)-1-hydroxy-5-oxopentan-2-yl)amino)-1-oxopropan-2-yl)carbamate] is higher in IC50: 71000 nM for the first, over 200000 nM for the second. The first is the more potent here.

First: Cc1cccc(C(OC(=O)N[C@@H](CC2CCCCC2)C(=O)N[C@@H](C[C@@H]2CCNC2=O)C(=O)C(N)=O)C(C)(C)c2cccc(Cl)c2)c1 (stereo partly drawn) [Compound C124, 2-(3-chlorophenyl)-2-methyl-1-(m-tolyl)propyl ((S)-1-(((S)-4-amino-3,4-dioxo-1-((S)-2-oxopyrrolidin-3-yl)butan-2-yl)amino)-3-cyclohexyl-1-oxopropan-2-yl) carbamate]
Second: CC(C)(c1cccc(Cl)c1)[C@@H](OC(=O)N[C@@H](CC1CCCCC1)C(=O)N[C@@H](C[C@@H]1CCNC1=O)C(=O)C(N)=O)c1cccc(F)c1 [Compound C182]
The IC50 of the first is 7.6-fold lower: 324 nM for the first, 2470 nM for the second.

`CN(CCc1ccccc1)C(=O)CC[C@@H](C=O)NC(=O)[C@H](CC1CCCCC1)NC(=O)OC1(c2cccc(Cl)c2)CC1` [Compound C10, 1-(3-Chlorophenyl) cyclopropyl ((S)-3-cyclohexyl-1-(((S)-5-(methyl (phenethyl)amino)-1,5-dioxopentan-2-yl)amino)-1-oxopropan-2-yl) carbamate] and `O=C[C@H](CC1CCN(CCc2ccccc2)C1=O)NC(=O)[C@H](CC1CCCCC1)NC(=O)OCc1cccc(Cl)c1` (stereo partly drawn) [Compound C27, 3-Chlorobenzyl ((2S)-3-cyclohexyl-1-oxo-1-((1-oxo-3-(2-oxo-1-phenethylpyrrolidin-3-yl)propan-2-yl)amino)propan-2-yl) carbamate] cannot be ordered by IC50: over 200000 nM for the first, over 200000 nM for the second.

First: CC(C)C[C@H](NC(=O)OC(Cc1cccc(Cl)c1)c1ccccc1)C(=O)N[C@H](C=O)C[C@@H]1CCNC1=O (stereo partly drawn) [Compound C104, 2-(3-Chlorophenyl)-1-phenylethyl ((S)-4-methyl-1-oxo-1-(((S)-1-oxo-3-((S)-2-oxopyrrolidin-3-yl)propan-2-yl)amino)pentan-2-yl) carbamate]
Second: CC(C)C[C@H](NC(=O)OC(Cc1cccc(Cl)c1)c1cccc(Cl)c1)C(=O)N[C@@H](C[C@@H]1CCNC1=O)C(=O)C(=O)NC1CC1 (stereo partly drawn) [Compound C242, 1,2-Bis(3-chlorophenyl)ethyl ((S)-1-(((S)-4-(cyclopropylamino)-3,4-dioxo-1-((S)-2-oxopyrrolidin-3-yl)butan-2-yl)amino)-4-methyl-1-oxopentan-2-yl)carbamate]
The IC50 of the first is 12-fold lower: 6 nM for the first, 74 nM for the second. The first is the more potent here.

`CC(C)(C)OC(=O)N1CCC(OC(=O)N[C@@H](CC2CCCCC2)C(=O)N[C@H](C=O)CCC(=O)N2CCOc3ccccc3C2)CC1` [Compound C23, Tert-butyl 4-((((S)-3-cyclohexyl-1-(((S)-5-(2,3-dihydrobenzo[f][1, 4]oxazepin-4(5H)-yl)-1,5-dioxopentan-2-yl)amino)-1-oxopropan-2-yl)carbamoyl)oxy)piperidine-1-carboxylate] and `CCCCCCCOC(=O)N[C@@H](CC1CCCCC1)C(=O)N[C@H](C=O)CCC(=O)N1CCOc2ccccc2C1` [Compound C24, Heptyl ((S)-3-cyclohexyl-1-(((S)-5-(2,3-dihydrobenzo[f][1,4]oxazepin-4(5H)-yl)-1,5-dioxopentan-2-yl)amino)-1-oxopropan-2-yl)carbamate] cannot be ordered by IC50: over 200000 nM for the first, over 200000 nM for the second.

Compared with `CC(C)C[C@H](NC(=O)OCC(C)(C)c1cccc(Cl)c1)C(=O)N[C@@H](C[C@@H]1CCNC1=O)C(O)S(=O)(=O)O` (stereo partly drawn) [Compound C72, Sodium (2S)-2-((S)-2-(((2-(3-chlorophenyl)-2-methylpropoxy)carbonyl)amino)-4-methylpentanamido)-1-hydroxy-3-((S)-2-oxopyrrolidin-3-yl)propane-1-sulfonate], `CC(C)C[C@H](NC(=O)OCC(C)(C)c1cccc(Cl)c1)C(=O)N[C@@H](C[C@@H]1CCNC1=O)C(=O)C(N)=O` [Compound C90, 2-(3-chlorophenyl)-2-methylpropyl ((S)-1-(((S)-4-amino-3,4-dioxo-1-((S)-2-oxopyrrolidin-3-yl)butan-2-yl)amino)-4-methyl-1-oxopentan-2-yl)carbamate] is 10-fold higher in IC50: 10 nM for the first, 100 nM for the second. The first is the more potent here.

`CS(=O)(=O)N1CCC2(CC1)CC(C[C@H](NC(=O)[C@H](CC1CCCCC1)NC(=O)OCc1cccc(Cl)c1)C(=O)C(=O)NC1CC1)C(=O)N2` (stereo partly drawn) [Compound C170, 3-Chlorobenzyl ((2S)-3-cyclohexyl-1-(((2S)-4-(cyclopropylamino)-1-(8-(methylsulfonyl)-2-oxo-1,8-diazaspiro[4.5]decan-3-yl)-3,4-dioxobutan-2-yl)amino)-1-oxopropan-2-yl)carbamate] and `CC1(C)CC(CC(NC(=O)[C@H](CC2CCCCC2)NC(=O)OC(c2cccc(Cl)c2)C(C)(C)c2cccc(Cl)c2)C(=O)C(=O)NC2CC2)C(=O)N1` (some centres unmarked) [Compound C281] are within 1.5-fold of each other in IC50: 1840 nM for the first, 2480 nM for the second.

First: COc1cccc(CC2(OC(=O)N[C@@H](CC(C)C)C(=O)N[C@H](C=O)C[C@@H]3CCNC3=O)CC2)c1 [Compound C42, 1-(3-Methoxybenzyl)cyclopropyl ((S)-4-methyl-1-oxo-1-(((S)-1-oxo-3-((S)-2-oxopyrrolidin-3-yl)propan-2-yl)amino)pentan-2-yl)carbamate]
Second: CC(C)C[C@H](NC(=O)OC1(Cc2cccnc2)CC1)C(=O)N[C@@H](C[C@@H]1CCNC1=O)C(O)S(=O)(=O)O (stereo partly drawn) [Compound C62, (2S)-1-Hydroxy-2-((S)-4-methyl-2-(((1-(pyridin-3-ylmethyl)cyclopropoxy)carbonyl)amino)pentanamido)-3-((S)-2-oxopyrrolidin-3-yl)propane-1-sulfonate]
The IC50 of the first is 13-fold lower: 356 nM for the first, 4600 nM for the second. The first is the more potent here.

Going from `O=C(N[C@@H](CC1CCCCC1)C(=O)N[C@@H](C[C@@H]1CCNC1=O)C(O)S(=O)(=O)O)OC(Cc1cccc(Cl)c1)c1ccccc1` (stereo partly drawn) [Compound C115, Sodium (2S)-2-((2S)-2-(((2-(3-chlorophenyl)-1-phenylethoxy)carbonyl)amino)-3-cyclohexylpropanamido)-1-hydroxy-3-((S)-2-oxopyrrolidin-3-yl)propane-1-sulfonate] to `CC(C)(C)C(OC(=O)N[C@@H](CC1CCCCC1)C(=O)N[C@@H](C[C@@H]1CCNC1=O)C(=O)C(N)=O)c1ccccc1` (stereo partly drawn) [Compound C231, 2,2-Dimethyl-1-phenylpropyl ((S)-1-(((S)-4-amino-3,4-dioxo-1-((S)-2-oxopyrrolidin-3-yl)butan-2-yl)amino)-3-cyclohexyl-1-oxopropan-2-yl) carbamate], the IC50 rises from 15.7 nM to 1800 nM (110-fold). The first is the more potent here.

Going from `CC(C)C[C@H](NC(=O)OCC1CCC(F)(F)CC1)C(=O)NC(C)(C=O)CC1CCNC1=O` (stereo partly drawn) [Compound C107, (4,4-Difluorocyclohexyl) methyl ((2S)-4-methyl-1-((2-methyl-1-oxo-3-(2-oxopyrrolidin-3-yl)propan-2-yl)amino)-1-oxopentan-2-yl) carbamate] to `O=C[C@H](C[C@@H]1CCNC1=O)NC(=O)[C@H](CC1CCCCC1)NC(=O)O[C@@H]1CCC[C@H]1Cc1cccc(Cl)c1` [Compound C262], the IC50 falls from 6790 nM to 20 nM (340-fold).
